ChEMBL document CHEMBL4732077, “Potent and orally active purine-based fetal hemoglobin inducers for treating β-thalassemia and sickle cell disease” (Eur J Med Chem, 2021)
Calls of active or inactive are those of the source. The calls are words filed in the database; no cut-off is given here.

Legend:
[1] = system: Mus musculus; test: Antianemic effect in sickle cell disease mouse B6 model assessed as hemoglobin level at 100 mg/kg, ip once daily, five days a week for 4 weeks (reference value: 7.46 +/- 0.7 g/dl); format: functional
[2] = system: Erythrocyte; test: Induction of beta-globin gene expression in human erythrocytes at 147 uM after 3 days by RT-PCR analysis; format: functional, cell-based; conditions: time 3.0 day
[3] = system: Mus musculus; test: Antianemic effect in sickle cell disease mouse B6 model assessed as sickle cell level at 100 mg/kg, ip once daily, five days a week for 4 weeks (reference value: 16.78 +/- 1.9 %); format: functional
[4] = system: Mus musculus; test: Antianemic effect in sickle cell disease mouse B6 model assessed as neutrophils level at 100 mg/kg, ip once daily, five days a week for 4 weeks (reference value: 13.39 +/- 4.65 K/uL); format: functional
[5] = system: Mus musculus; test: Antianemic effect in sickle cell disease mouse B6 model assessed as reticulocytes level at 100 mg/kg, ip once daily, five days a week for 4 weeks (reference value: 57.34 +/- 3.67 %); format: functional
[6] = system: Erythrocyte; test: Induction of gamma-globin gene expression in human erythrocytes at 147 uM after 3 days by RT-PCR analysis; format: functional, cell-based; conditions: time 3.0 day
[7] = Induction of gamma-globin gene expression in human erythrocytes at 100 uM after 3 days by RT-PCR analysis relative to control; format: functional, Erythrocyte; conditions: time 3 day
[8] = system: Mus musculus; test: Antianemic effect in sickle cell disease mouse B6 model assessed as RBC level at 100 mg/kg, ip once daily, five days a week for 4 weeks (reference value: 7.23 +/- 0.75 M/uL); format: functional
[9] = system: Mus musculus; test: Antianemic effect in sickle cell disease mouse B6 model assessed as WBC level at 100 mg/kg, ip once daily, five days a week for 4 weeks (reference value: 34.15 +/- 5.85 K/uL); format: functional
[10] = system: Mus musculus; test: Antianemic effect in sickle cell disease mouse B6 model assessed as F-cell level at 100 mg/kg, ip once daily, five days a week for 4 weeks (reference value: 1.63 +/- 0.11 %); format: functional
[11] = Cytotoxicity against human erythrocytes assessed as cell viability after 3 days alamar blue assay; format: cell-based, Erythrocyte; conditions: time 3 day
[12] = system: Mus musculus; test: Antianemic effect in sickle cell disease mouse B6 model assessed as fetal hemoglobin level at 100 mg/kg, ip once daily, five days a week for 4 weeks (reference value: 0.2 +/- 0.02 %); format: functional
[13] = Induction of gamma-globin gene expression in human erythrocytes at 2 uM after 3 days by RT-PCR analysis relative to control; format: functional, Erythrocyte; conditions: time 3 day
[14] = system: Mus musculus; test: Antianemic effect in sickle cell disease mouse B6 model assessed as F-cell level at 50 mg/kg, po twice daily, five days a week for 4 weeks (reference value: 1.63 +/- 0.11 %); format: functional
[15] = Oral bioavailability in Sprague-Dawley rat at 20 mg/kg measured upto 24 hrs by LC-MS/MS analysis; format: ADME, organism-based; conditions: in vivo
[16] = system: Mus musculus; test: Antianemic effect in sickle cell disease mouse B6 model assessed as F-cell level at 100 mg/kg, po twice daily, five days a week for 4 weeks (reference value: 1.63 +/- 0.11 %); format: functional
[17] = Downregulation of c-MYB gene expression in human erythrocyte at 0.5 uM after 3 days by RT-PCR analysis relative to control; format: functional; conditions: time 3 day
[18] = Half life in Sprague-Dawley rat at 20 mg/kg, po measured upto 24 hrs by LC-MS/MS analysis; format: ADME, organism-based; conditions: in vivo
[19] = Water solubility of compound at pH 7.4 after 24 hrs by LC/MS analysis; format: physicochemical; conditions: buffer, pH 7.4, 24 h
[20] = Induction of NFE2L2 gene expression in human erythrocyte at 0.5 uM after 3 days by RT-PCR analysis relative to control; format: functional; conditions: time 3 day
[21] = Induction of gamma-globin gene expression in human HU-resistant primary erythrocytes at 0.5 uM after 3 days by RT-PCR analysis relative to control; format: functional, Erythrocyte; conditions: time 3 day
[22] = system: Mus musculus; test: Antianemic effect in sickle cell disease mouse B6 model assessed as neutrophils level at 100 mg/kg, po twice daily, five days a week for 4 weeks (reference value: 13.39 +/- 4.65 K/uL); format: functional
[23] = AUC (0 to infinity) in Sprague-Dawley rat at 5 mg/kg, iv measured upto 24 hrs by LC-MS/MS analysis; format: ADME, organism-based; design: route intravenous, dose 5 mg/kg, time <=24; conditions: in vivo
[24] = system: Mus musculus; test: Antianemic effect in sickle cell disease mouse B6 model assessed as neutrophils level at 50 mg/kg, po twice daily, five days a week for 4 weeks (reference value: 13.39 +/- 4.65 K/uL); format: functional
[25] = Induction of GATA1 gene expression in human erythrocyte at 0.5 uM after 3 days by RT-PCR analysis relative to control; format: functional; conditions: time 3 day
[26] = AUC (0 to infinity) in Sprague-Dawley rat at 20 mg/kg, po measured upto 24 hrs by LC-MS/MS analysis; format: ADME, organism-based; design: route oral, dose 20 mg/kg, time <=24; conditions: in vivo
[27] = system: Erythrocyte; test: Induction of gamma-globin gene expression in human erythrocytes at 0.5 to 1 uM after 3 days Western blot analysis; format: functional, cell-based; conditions: dose 0.5-1 µM, time 3.0 day
[28] = system: Erythrocyte; test: Cytotoxicity against human erythrocytes assessed as cell viability at 1 uM after 3 days alamar blue assay; format: cell-based; conditions: 72 h, time 3 day
[29] = Volume of distribution at steady state in Sprague-Dawley rat at 5 mg/kg, iv measured upto 24 hrs by LC-MS/MS analysis; format: ADME, organism-based; conditions: in vivo, read-out: Vdss
[30] = system: Mus musculus; test: Antianemic effect in sickle cell disease mouse B6 model assessed as fetal hemoglobin level at 100 mg/kg, po twice daily, five days a week for 4 weeks (reference value: 0.2 +/- 0.02 %); format: functional
[31] = system: Erythrocyte; test: Induction of gamma-globin gene expression in human erythrocytes after 3 days by RT-PCR analysis; format: functional, cell-based; conditions: dose 0.06-2 µM, time 3.0 day
[32] = system: Mus musculus; test: Antianemic effect in sickle cell disease mouse B6 model assessed as RBC level at 100 mg/kg, po twice daily, five days a week for 4 weeks (reference value: 7.23 +/- 0.75 M/uL); format: functional
[33] = system: Mus musculus; test: Antianemic effect in sickle cell disease mouse B6 model assessed as hemoglobin level at 50 mg/kg, po twice daily, five days a week for 4 weeks (reference value: 7.46 +/- 0.7 g/dl); format: functional
[34] = system: Mus musculus; test: Antianemic effect in sickle cell disease mouse B6 model assessed as hemoglobin level at 100 mg/kg, po twice daily, five days a week for 4 weeks (reference value: 7.46 +/- 0.7 g/dl); format: functional
[35] = system: Mus musculus; test: Antianemic effect in sickle cell disease mouse B6 model assessed as WBC level at 100 mg/kg, po twice daily, five days a week for 4 weeks (reference value: 34.15 +/- 5.85 K/uL); format: functional
[36] = Induction of CPOX gene expression in human erythrocyte at 1 uM after 3 days by RT-PCR analysis relative to control; format: functional; conditions: time 3 day
[37] = system: Erythrocyte; test: Induction of gamma-globin gene expression in human erythrocytes at 0.5 uM after 3 days by RT-PCR analysis; format: functional, cell-based; conditions: time 3.0 day
[38] = Induction of NFE2L2 gene expression in human erythrocyte at 1 uM after 3 days by RT-PCR analysis relative to control; format: functional; conditions: time 3 day
[39] = Downregulation of c-MYB gene expression in human erythrocyte at 1 uM after 3 days by RT-PCR analysis relative to control; format: functional; conditions: time 3 day
[40] = molecular target: Histone deacetylase (Homo sapiens) (UniProt Q13547+O15379+Q9UBN7+Q92769+Q9UQL6+Q8WUI4+Q9BY41+Q96DB2+P56524+Q9UKV0+Q969S8); test: Inhibition of HDAC in human erythrocyte cells assessed as increase in acetylation of histone H4 at 0.5 to 1 uM after 3 days by Western blot analysis; format: cell-based; conditions: dose 0.5-1 µM, time 3.0 day
[41] = system: Mus musculus; test: Antianemic effect in sickle cell disease mouse B6 model assessed as fetal hemoglobin level at 50 mg/kg, po twice daily, five days a week for 4 weeks (reference value: 0.2 +/- 0.02 %); format: functional
[42] = Induction of GATA1 gene expression in human erythrocyte at 1 uM after 3 days by RT-PCR analysis relative to control; format: functional; conditions: time 3 day
[43] = system: Erythrocyte; test: Downregulation of […] expression in human erythrocyte at 1 uM after 3 days by Western blot analysis; format: functional, tissue-based; conditions: time 3.0 day
[44] = system: Erythrocyte; test: Cytotoxicity against human erythrocytes assessed as cell viability at 4 uM after 3 days alamar blue assay; format: cell-based; conditions: 72 h, time 3 day
[45] = Half life in Sprague-Dawley rat at 5 mg/kg, iv measured upto 24 hrs by LC-MS/MS analysis; format: ADME, organism-based; conditions: in vivo
[46] = system: Erythrocyte; test: Induction of beta-globin gene expression in human erythrocytes at 0.5 uM after 3 days by RT-PCR analysis; format: functional, cell-based; conditions: time 3.0 day
[47] = system: Mus musculus; test: Antianemic effect in sickle cell disease mouse B6 model assessed as reticulocytes level at 50 mg/kg, po twice daily, five days a week for 4 weeks (reference value: 57.34 +/- 3.67 %); format: functional
[48] = Clearance in Sprague-Dawley rat at 5 mg/kg, iv measured upto 24 hrs by LC-MS/MS analysis; format: ADME, organism-based; conditions: in vivo
[49] = system: Mus musculus; test: Antianemic effect in sickle cell disease mouse B6 model assessed as sickle cell level at 50 mg/kg, po twice daily, five days a week for 4 weeks (reference value: 16.78 +/- 1.9 %); format: functional
[50] = system: Mus musculus; test: Antianemic effect in sickle cell disease mouse B6 model assessed as RBC level at 50 mg/kg, po twice daily, five days a week for 4 weeks (reference value: 7.23 +/- 0.75 M/uL); format: functional
[51] = Cytotoxicity against human erythrocytes assessed as cell viability at 2 uM after 3 days alamar blue assay relative to control; format: cell-based, Erythrocyte; conditions: time 3 day, read-out: Activity
[52] = Induction of gamma-globin gene expression in human erythrocytes at 1 uM after 3 days by RT-PCR analysis relative to control; format: functional, Erythrocyte; conditions: time 3 day
[53] = system: Mus musculus; test: Antianemic effect in sickle cell disease mouse B6 model assessed as WBC level at 50 mg/kg, po twice daily, five days a week for 4 weeks (reference value: 34.15 +/- 5.85 K/uL); format: functional
[54] = system: Mus musculus; test: Antianemic effect in sickle cell disease mouse B6 model assessed as reticulocytes level at 100 mg/kg, po twice daily, five days a week for 4 weeks (reference value: 57.34 +/- 3.67 %); format: functional
[55] = system: Mus musculus; test: Antianemic effect in sickle cell disease mouse B6 model assessed as sickle cell level at 100 mg/kg, po twice daily, five days a week for 4 weeks (reference value: 16.78 +/- 1.9 %); format: functional
[56] = Cmax in Sprague-Dawley rat at 20 mg/kg, po measured upto 24 hrs by LC-MS/MS analysis; format: ADME, organism-based; design: route oral, dose 20 mg/kg, time <=24; conditions: in vivo
[57] = Induction of CPOX gene expression in human erythrocyte at 0.5 uM after 3 days by RT-PCR analysis relative to control; format: functional; conditions: time 3 day

SMILES: NC(=O)NO [HYDROXYUREA]
- Activity [1]: 6.7 g/dL
- Activity [2]: Active
- Activity [3]: 14.7%
- Activity [4]: 9.75 K/uL
- Activity [5]: 50.92%
- Activity [6]: Active
- fold change (FC) [7]: 2.5
- Activity [8]: 6.34 M/uL
- Activity [9]: 23.02 K/uL
- Activity [10]: 1.3%
- CC50 at 72 h [11]: 147 µM
- Activity [12]: 0.23%

SMILES: CCN1CCN(c2nc(Nc3cccc(NC(=O)C#Cc4ccc(C)cc4)c3)c3ncn(CC)c3n2)CC1.Cl.Cl
- fold change (FC) [13]: 4.8
- Activity [14]: 2.15%
- bioavailability [15]: 25%
- Activity [16]: 2.42%
- fold change (FC) [17]: 0.7
- half-life [18]: 3.8 h
- solubility [19]: 3.38 µg/mL
- fold change (FC) [20]: 1.7
- fold change (FC) [21]: 2
- Activity [22]: 15.64 K/uL
- AUC(0-inf) [23]: 8860 ng·h/mL
- Activity [24]: 15.05 K/uL
- fold change (FC) [25]: 1.6
- AUC(0-inf) [26]: 9000 ng·h/mL
- Activity [27]: Active
- Activity [28]: Non-Toxic
- Vd [29]: 0.3 L/kg
- Activity [30]: 0.3%
- Activity [31]: Dose-dependent effect
- Activity [32]: 8.05 M/uL
- Activity [33]: 8.15 g/dL
- Activity [34]: 8.05 g/dL
- Activity [35]: 44.12 K/uL
- fold change (FC) [36]: 2.2
- Activity [37]: Active
- fold change (FC) [38]: 2.3
- fold change (FC) [39]: 0.6
- inhibition [40]: inactive
- Activity [41]: 0.28%
- fold change (FC) [42]: 2.3
- Activity [43]: Active
- Activity [44]: Toxic
- half-life [45]: 7.2 h
- Activity [46]: inactive
- Activity [47]: 58.98%
- clearance [48]: 8.2 mL/min/kg
- Activity [49]: 10%
- Activity [50]: 7.78 M/uL
- viability at 72 h, 2 µM [51]: 72%
- fold change (FC) [52]: 3.8
- Activity [53]: 35.85 K/uL
- Activity [54]: 54.66%
- Activity [55]: 8.8%
- Cmax [56]: 2730 ng/mL
- fold change (FC) [57]: 1.8
